Test results reported in patent US11957783B2, “Topical immunosensitizers to treat viral and fungal infections” (Squarex, LLC, priority 2018, dated 2024).

Tested on: peripheral blood mononuclear cells (PBMC)
Test: Cytokine and immune-function gene expression of PBMC in vitro (qRT-PCR, 41 immune-related genes)
Assay type: cell-based, human
Settings: Group A
Protocol: After a screening visit at which blood was drawn to test for IgG antibody against HSV-1 and subjects were interviewed for inclusion/exclusion criteria, selected subjects returned for blood draws on day 1. After the blood draw on day 1, subjects in group A only were dosed with SADBE. A petrolatum donut was applied with a cotton swab to form about a 1 cm diameter donut on skin on the inner aspect of the upper arm. Then a separate cotton swab was dipped in a 2% SADBE solution (w/v) in DMSO, and the swab was then used to apply about 10-20 mg of solution over about a 1 cm diameter circle within the petrolatum donut. Immediately after application, the application site was covered with TEGADERM. Subjects were advised to remove the TEGADERM and rinse and wipe the spot three hours later. The group A subjects then returned for blood draws on days 15 and 57 and were queried about adverse events on those dates.
PBMC were isolated using SepMate PBMC isolation tubes (Stem Cell Technologies, Vancouver, Canada) and Ficoll-Paque according to the manufacturer's instructions. PBMC were isolated and suspended in negative control medium at 2 million cells/ml. PBMC suspension (100 μL) was added to 100 μL of medium in quadruplicate in 96-well plates. The plates were prepared in advance and stored at −70° C. The wells were in five different conditions in quadruplicate with these final concentrations after addition of the 100 μL of PBMC suspension in negative control medium. • 1. Negative control in medium (RPMI with glutamine and pen/strep, supplemented with 10% human A/B serum). • 2. Medium plus 16 μg/ml protein from heat-inactivated HSV-1-infected Vero cell extracts. • 3. Medium plus heat-inactivated HSV-1 cell-free virus at a final 7.5 million pfu/ml. • 4. Medium plus Candida cell extract. (Greer item number M15A50, 20,000 pnu/ml allergenic extract mixed molds Candida albicans, was diluted 1/50 into medium). • 5. Positive control, medium plus 10 μg/ml concanavalin A.
Two plates were created for each subject at each collection point. One plate was incubated for 2 days at 37° C. in a humidified 5% CO2 atmosphere and then RNA was isolated from the pooled contents of the 4 wells of a given condition for a specific patient, and the RNA was stored at −70° C. and subsequently used for quantitative real time PCR analysis of gene expression of 41 immune-related genes.
As noted above, after 2 days of growth of the PBMC in a 37° C. humidified 5% CO2 incubator in a 96-well plate, four wells of a single condition (negative control, positive control, heat-inactivated HSV-1, HSV-1-infected cell extracts, or Candida extract) with cells from a single subject (200 μL in each well) were pooled, and the RNA was immediately isolated with Trizol reagent and chloroform by Qiagen RNeasy MiniElute clean up kit Qiagen cat #74204, according to manufacturer's instructions into a final volume of 13 μL, and then flash frozen on powdered dry ice, and stored at −70° C. in aliquots of 3 μL for RNA quantification and 10 μL for PCR analysis.
RNA was preamplified with the Qiagen RT2 PreAMP cDNA synthesis kit (Ref. 330451) and custom RT2 PreAmp primer mix (Ref. 330141) starting with about 50 ng RNA according to the procedure of RT preamp cDNA synthesis handbook date March 2011, pages 17-20. The amplification reactions (final 120 μL) were frozen at −70° C. and used for qPCR analysis the next day.
qPCR was done with the Qiagen RT PCR profiler gene analysis kit (catalog number 330451) using RT2 Sybr Green Rox qPCR Mastermix (24) (Part 330523) and Custom RT2 PCR array plates (Ref. 330171). For this 675 μL 2×RT2 SYBR green mastermix, 51 μL pre-AMP synthesis reaction, and 623 μL RNase free water were mixed, and then 25 μL of the mixture was added to 48 wells on the left or right half of the custom PCR plate. The PCR instrument was Applied Biosystems 7900HT fast real time PCR. […]

CCCCOc1c(OCCCC)c(=O)c1=O [SADBE, 3,4-Dibutoxy-3-cyclobutene-1,2-dione]
IFNB1 ratio of PBMC absolute gene expression day 57/day 1 (HSV-infected cell extracts): 0.65 | IFNG ratio of PBMC absolute gene expression day 15/day 1 (HSV-infected cell extracts): 1.26 | IFNG ratio of PBMC absolute gene expression day 57/day 1 (HSV-infected cell extracts): 5.72 | IL1B ratio of PBMC absolute gene expression day 15/day 1 (HSV-infected cell extracts): 1.48 | IL1B ratio of PBMC absolute gene expression day 57/day 1 (HSV-infected cell extracts): 21.45 | IL1R1 ratio of PBMC absolute gene expression day 15/day 1 (HSV-infected cell extracts): 0.89 | IL1R1 ratio of PBMC absolute gene expression day 57/day 1 (HSV-infected cell extracts): 1.11 | IL1RN ratio of PBMC absolute gene expression day 15/day 1 (HSV-infected cell extracts): 0.94 | IL1RN ratio of PBMC absolute gene expression day 57/day 1 (HSV-infected cell extracts): 0.79 | IL2 ratio of PBMC absolute gene expression day 15/day 1 (HSV-infected cell extracts): 0.98 | IL2 ratio of PBMC absolute gene expression day 57/day 1 (HSV-infected cell extracts): 2.48 | IL4 ratio of PBMC absolute gene expression day 15/day 1 (HSV-infected cell extracts): 0.77 | IL4 ratio of PBMC absolute gene expression day 57/day 1 (HSV-infected cell extracts): 0.89 | IL5 ratio of PBMC absolute gene expression day 15/day 1 (HSV-infected cell extracts): 0.83 | IL5 ratio of PBMC absolute gene expression day 57/day 1 (HSV-infected cell extracts): 0.50 | IL8 ratio of PBMC absolute gene expression day 15/day 1 (HSV-infected cell extracts): 0.99 | IL8 ratio of PBMC absolute gene expression day 57/day 1 (HSV-infected cell extracts): 3.86 | IL10 ratio of PBMC absolute gene expression day 15/day 1 (HSV-infected cell extracts): 1.19 | IL10 ratio of PBMC absolute gene expression day 57/day 1 (HSV-infected cell extracts): 3.29 | IL12A ratio of PBMC absolute gene expression day 15/day 1 (HSV-infected cell extracts): 0.90 | IL12A ratio of PBMC absolute gene expression day 57/day 1 (HSV-infected cell extracts): 0.89 | IL12B ratio of PBMC absolute gene expression day 15/day 1 (HSV-infected cell extracts): 0.80 | IL12B ratio of PBMC absolute gene expression day 57/day 1 (HSV-infected cell extracts): 0.23 | IL13 ratio of PBMC absolute gene expression day 15/day 1 (HSV-infected cell extracts): 1.01 | IL13 ratio of PBMC absolute gene expression day 57/day 1 (HSV-infected cell extracts): 2.28 | IL15 ratio of PBMC absolute gene expression day 15/day 1 (HSV-infected cell extracts): 0.93 | IL15 ratio of PBMC absolute gene expression day 57/day 1 (HSV-infected cell extracts): 0.87 | IL16 ratio of PBMC absolute gene expression day 15/day 1 (HSV-infected cell extracts): 1.03 | IL16 ratio of PBMC absolute gene expression day 57/day 1 (HSV-infected cell extracts): 1.02 | JAK2 ratio of PBMC absolute gene expression day 15/day 1 (HSV-infected cell extracts): 0.86 | JAK2 ratio of PBMC absolute gene expression day 57/day 1 (HSV-infected cell extracts): 0.82 | LTA ratio of PBMC absolute gene expression day 15/day 1 (HSV-infected cell extracts): 1.03 | LTA ratio of PBMC absolute gene expression day 57/day 1 (HSV-infected cell extracts): 0.99 | LYZ ratio of PBMC absolute gene expression day 15/day 1 (HSV-infected cell extracts): 0.73 | LYZ ratio of PBMC absolute gene expression day 57/day 1 (HSV-infected cell extracts): 0.29 | MX1 ratio of PBMC absolute gene expression day 15/day 1 (HSV-infected cell extracts): 0.89 | MX1 ratio of PBMC absolute gene expression day 57/day 1 (HSV-infected cell extracts): 0.66 | NOD1 ratio of PBMC absolute gene expression day 15/day 1 (HSV-infected cell extracts): 1.04 | NOD1 ratio of PBMC absolute gene expression day 57/day 1 (HSV-infected cell extracts): 0.89 | SPP1 ratio of PBMC absolute gene expression day 15/day 1 (HSV-infected cell extracts): 2.09 | SPP1 ratio of PBMC absolute gene expression day 57/day 1 (HSV-infected cell extracts): 5.38 | STAT1 ratio of PBMC absolute gene expression day 15/day 1 (HSV-infected cell extracts): 0.90 | STAT1 ratio of PBMC absolute gene expression day 57/day 1 (HSV-infected cell extracts): 0.91 | STAT4 ratio of PBMC absolute gene expression day 15/day 1 (HSV-infected cell extracts): 0.89 | STAT4 ratio of PBMC absolute gene expression day 57/day 1 (HSV-infected cell extracts): 1.01 | TNF ratio of PBMC absolute gene expression day 15/day 1 (HSV-infected cell extracts): 1.17 | TNF ratio of PBMC absolute gene expression day 57/day 1 (HSV-infected cell extracts): 1.2 | TNFSF10 ratio of PBMC absolute gene expression day 15/day 1 (HSV-infected cell extracts): 0.84 | TNFSF10 ratio of PBMC absolute gene expression day 57/day 1 (HSV-infected cell extracts): 0.88 | TNFSF13B ratio of PBMC absolute gene expression day 15/day 1 (HSV-infected cell extracts): 0.93 | TNFSF13B ratio of PBMC absolute gene expression day 57/day 1 (HSV-infected cell extracts): 1.07 | CCL2 ratio of PBMC absolute gene expression day 15/day 1 (Neg. control): 0.35 | CCL2 ratio of PBMC absolute gene expression day 57/day 1 (Neg. control): 1.15 | CCL3 ratio of PBMC absolute gene expression day 15/day 1 (Neg. control): 0.47 | CCL3 ratio of PBMC absolute gene expression day 57/day 1 (Neg. control): 1.79 | CCL7 ratio of PBMC absolute gene expression day 15/day 1 (Neg. control): 0.25 | CCL7 ratio of PBMC absolute gene expression day 57/day 1 (Neg. control): 1.35 | CCR5 ratio of PBMC absolute gene expression day 15/day 1 (Neg. control): 1.00 | CCR5 ratio of PBMC absolute gene expression day 57/day 1 (Neg. control): 1.19 | CD80 ratio of PBMC absolute gene expression day 15/day 1 (Neg. control): 0.66 | CD80 ratio of PBMC absolute gene expression day 57/day 1 (Neg. control): 1.16 | CXCL2 ratio of PBMC absolute gene expression day 15/day 1 (Neg. control): 0.51 | CXCL2 ratio of PBMC absolute gene expression day 57/day 1 (Neg. control): 1.33 | CXCL5 ratio of PBMC absolute gene expression day 15/day 1 (Neg. control): 0.36 | CXCL5 ratio of PBMC absolute gene expression day 57/day 1 (Neg. control): 1.78 | CXCL9 ratio of PBMC absolute gene expression day 15/day 1 (Neg. control): 2.50 | CXCL9 ratio of PBMC absolute gene expression day 57/day 1 (Neg. control): 4.93 | CXCL10 ratio of PBMC absolute gene expression day 15/day 1 (Neg. control): 0.94 | CXCL10 ratio of PBMC absolute gene expression day 57/day 1 (Neg. control): 0.68 | CXCL11 ratio of PBMC absolute gene expression day 15/day 1 (Neg. control): 0.62 | CXCL11 ratio of PBMC absolute gene expression day 57/day 1 (Neg. control): 0.83 | DDX58 ratio of PBMC absolute gene expression day 15/day 1 (Neg. control): 0.82 | DDX58 ratio of PBMC absolute gene expression day 57/day 1 (Neg. control): 0.83 | FOXP3 ratio of PBMC absolute gene expression day 15/day 1 (Neg. control): 0.95 | FOXP3 ratio of PBMC absolute gene expression day 57/day 1 (Neg. control): 1.07 | GATA3 ratio of PBMC absolute gene expression day 15/day 1 (Neg. control): 1.06 | GATA3 ratio of PBMC absolute gene expression day 57/day 1 (Neg. control): 0.84 | ICAM1 ratio of PBMC absolute gene expression day 15/day 1 (Neg. control): 1.10 | ICAM1 ratio of PBMC absolute gene expression day 57/day 1 (Neg. control): 1.34 | IFNA1 ratio of PBMC absolute gene expression day 15/day 1 (Neg. control): 1.20 | IFNA1 ratio of PBMC absolute gene expression day 57/day 1 (Neg. control): 1.47 | IFNB1 ratio of PBMC absolute gene expression day 15/day 1 (Neg. control): 0.99 | IFNB1 ratio of PBMC absolute gene expression day 57/day 1 (Neg. control): 0.73 | IFNG ratio of PBMC absolute gene expression day 15/day 1 (Neg. control): 1.05 | IFNG ratio of PBMC absolute gene expression day 57/day 1 (Neg. control): 1.24 | IL1B ratio of PBMC absolute gene expression day 15/day 1 (Neg. control): 0.16 | IL1B ratio of PBMC absolute gene expression day 57/day 1 (Neg. control): 2.09 | IL1R1 ratio of PBMC absolute gene expression day 15/day 1 (Neg. control): 1.00 | IL1R1 ratio of PBMC absolute gene expression day 57/day 1 (Neg. control): 0.6 | IL1RN ratio of PBMC absolute gene expression day 15/day 1 (Neg. control): 0.90 | IL1RN ratio of PBMC absolute gene expression day 57/day 1 (Neg. control): 1.35 | IL2 ratio of PBMC absolute gene expression day 15/day 1 (Neg. control): 0.80 | IL2 ratio of PBMC absolute gene expression day 57/day 1 (Neg. control): 1.21 | IL4 ratio of PBMC absolute gene expression day 15/day 1 (Neg. control): 0.86 | IL4 ratio of PBMC absolute gene expression day 57/day 1 (Neg. control): 0.98 | IL5 ratio of PBMC absolute gene expression day 15/day 1 (Neg. control): 0.99 | IL5 ratio of PBMC absolute gene expression day 57/day 1 (Neg. control): 0.39 | IL8 ratio of PBMC absolute gene expression day 15/day 1 (Neg. control): 0.62 | IL8 ratio of PBMC absolute gene expression day 57/day 1 (Neg. control): 2.38 | IL10 ratio of PBMC absolute gene expression day 15/day 1 (Neg. control): 0.90 | IL10 ratio of PBMC absolute gene expression day 57/day 1 (Neg. control): 1.04 | IL12A ratio of PBMC absolute gene expression day 15/day 1 (Neg. control): 0.84 | IL12A ratio of PBMC absolute gene expression day 57/day 1 (Neg. control): 0.98 | IL12B ratio of PBMC absolute gene expression day 15/day 1 (Neg. control): 0.40 | IL12B ratio of PBMC absolute gene expression day 57/day 1 (Neg. control): 1.38 | IL13 ratio of PBMC absolute gene expression day 15/day 1 (Neg. control): 0.88 | IL13 ratio of PBMC absolute gene expression day 57/day 1 (Neg. control): 1.69 | IL15 ratio of PBMC absolute gene expression day 15/day 1 (Neg. control): 0.95 | IL15 ratio of PBMC absolute gene expression day 57/day 1 (Neg. control): 1.13 | IL16 ratio of PBMC absolute gene expression day 15/day 1 (Neg. control): 1.06 | IL16 ratio of PBMC absolute gene expression day 57/day 1 (Neg. control): 0.89 | JAK2 ratio of PBMC absolute gene expression day 15/day 1 (Neg. control): 0.91 | JAK2 ratio of PBMC absolute gene expression day 57/day 1 (Neg. control): 0.93 | LTA ratio of PBMC absolute gene expression day 15/day 1 (Neg. control): 0.94
